Results taken from patent publication US10105357B2, “Indication of antibiotic drugs for preparation of cancer inhibition pharmaceutical composition” (LAUNX BIOMEDICAL CO., LTD., priority 2014, dated 2018).
Where a name gives a salt, the structure may show the parent alone. Read-outs that look alike come from different tables or passages of the source.

Columns and labels:
[1] = tested on: A375 (Amelanotic Melanoma); test: Cell viability analysis, skin cancer A375; format: cell-based, human; conditions: Homo sapiens, A-375, 72 h
[2] = tested on: MDA-MB-231 (Mammary Gland, Adenocarcinoma); test: Cell viability analysis, breast cancer MDA-MB-231; format: cell-based, human; conditions: Homo sapiens, MDA-MB-231, 72 h, read-out: The results of antibiotic drug inhibiting cancer cell lines (cell viability analysis), MDA-MB231
U-2OS = test: Cell viability analysis, osteosarcoma U-2OS; format: cell-based, human; conditions: Homo sapiens, U2OS, 72 h, read-out: The results of antibiotic drug inhibiting cancer cell lines (cell viability analysis), U2OS
[3] = tested on: HeLa (Cervix Adenocarcinoma); test: Cell viability analysis, cervical cancer HeLa; format: cell-based, human; conditions: Homo sapiens, HeLa, 72 h
[4] = tested on: SAS (Tongue squamous cell carcinoma); test: Cell viability analysis, tongue cancer SAS; format: cell-based, human; conditions: Homo sapiens, 72 h, read-out: The results of antibiotic drug inhibiting cancer cell lines (cell viability analysis), SAS
[5] = tested on: HepG2 (Hepatocellular Carcinoma); test: Cell viability analysis, hepatic cancer HepG2; format: cell-based, human; conditions: Homo sapiens, HepG2, 72 h
[6] = tested on: MCF7 (Mammary Gland, Adenocarcinoma); test: Cell viability analysis, breast cancer MCF7; format: cell-based, human; conditions: Homo sapiens, MCF7, 72 h
[7] = tested on: 786-O (Renal adenocarcinoma); test: Cell viability analysis, renal cancer 786-O; format: cell-based, human; conditions: Homo sapiens, 786-0, 72 h, read-out: The results of antibiotic drug inhibiting cancer cell lines (cell viability analysis), 786-O
AsPC-1 = test: Cell viability analysis, pancreatic cancer AsPC-1; format: cell-based, human; conditions: Homo sapiens, ASPC1, 72 h, read-out: The results of antibiotic drug inhibiting cancer cell lines (cell viability analysis), AsPC-1
BxPC-3 = test: Cell viability analysis, pancreatic cancer BxPC-3; format: cell-based, human; conditions: Homo sapiens, BXPC-3, 72 h, read-out: The results of antibiotic drug inhibiting cancer cell lines (cell viability analysis), BxPC-3
[8] = tested on: Hep3B (hepatocellular carcinoma); test: Cell viability analysis, hepatic cancer Hep3B; format: cell-based, human; conditions: Homo sapiens, Hep3B, 72 h, read-out: The results of antibiotic drug inhibiting cancer cell lines (cell viability analysis), Hep3B
NIH: OVCAR-3 = test: Cell viability analysis, ovarian cancer NIH: OVCAR-3; format: cell-based, human; conditions: Homo sapiens, OVCAR-3, 72 h, read-out: The results of antibiotic drug inhibiting cancer cell lines (cell viability analysis), NIH-OVCAR-3
[9] = tested on: C-33A (Cervical carcinoma); test: Cell viability analysis, cervical cancer C-33A; format: cell-based, human; conditions: Homo sapiens, C-33-A, 72 h, read-out: The results of antibiotic drug inhibiting cancer cell lines (cell viability analysis), C-33A
TOV-21G = test: Cell viability analysis, ovarian cancer TOV-21G; format: cell-based, human; conditions: Homo sapiens, TOV21G, 72 h, read-out: The results of antibiotic drug inhibiting cancer cell lines (cell viability analysis), TOV-21G
[10] = tested on: HCT116 (p53+) (Colorectal Carcinoma)
T24 = test: Cell viability analysis, bladder cancer T24; format: cell-based, human; conditions: Homo sapiens, T-24, 72 h, read-out: The results of antibiotic drug inhibiting cancer cell lines (cell viability analysis), T24
[11] = tested on: AGS (Gastric Adenocarcinoma); test: Cell viability analysis, gastric cancer AGS; format: cell-based, human; conditions: Homo sapiens, 72 h
[12] = tested on: HI650 (Lung Adenocarcinoma); test: Cell viability analysis, lung cancer HI650; format: cell-based, human; conditions: Homo sapiens, NCI-H1650, 72 h
[13] = tested on: LoVo (Colorectal Adenocarcinoma); test: Cell viability analysis, colon cancer LoVo; format: cell-based, human; conditions: Homo sapiens, LoVo, 72 h
[14] = tested on: TSGH-8301 (Urinary Bladder Carcinoma); test: Cell viability analysis, bladder cancer TSGH-8301; format: cell-based, human; conditions: Homo sapiens, 72 h
[15] = tested on: PC3 (p53−) (Prostate Adenocarcinoma); test: Cell viability analysis, prostate cancer PC3; format: cell-based, human; conditions: Homo sapiens, 72 h
[16] = tested on: A549 (Lung Adenocarcinoma); test: Cell viability analysis, lung cancer A549; format: cell-based, human; conditions: Homo sapiens, A549, 72 h
[17] = tested on: MKN-45 (Gastric Adenocarcinoma); test: Cell viability analysis, gastric cancer MKN-45; format: cell-based, human; conditions: Homo sapiens, MKN-45, 72 h
cancer cell lines = test: Cell viability analysis (WST-1) on cancer cell lines; format: cell-based, human; conditions: drug 10 μM, 72 hours, WST-1; Table 3
[18] = tested on: BCC (basal cell carcinoma); test: Cell viability analysis, skin cancer BCC; format: cell-based, human; conditions: Homo sapiens, 72 h, read-out: The results of antibiotic drug inhibiting cancer cell lines (cell viability analysis), BCC
[19] = read-out: The results of antibiotic drug inhibiting cancer cell lines (cell viability analysis), A375, A375, repeated experiment
[20] = read-out: The results of antibiotic drug inhibiting cancer cell lines (cell viability analysis), HeLa, repeated experiment
[21] = read-out: The results of antibiotic drug inhibiting cancer cell lines (cell viability analysis), HepG2, HepG2, repeated experiment
[22] = read-out: The results of antibiotic drug inhibiting cancer cell lines (cell viability analysis), MCF-7, MCF-7, repeated experiment
[23] = read-out: The results of antibiotic drug inhibiting cancer cell lines (cell viability analysis), AGS, repeated experiment
[24] = read-out: The results of antibiotic drug inhibiting cancer cell lines (cell viability analysis), H1650, H1650, repeated experiment
[25] = read-out: The results of antibiotic drug inhibiting cancer cell lines (cell viability analysis), LoVo, repeated experiment
[26] = read-out: The results of antibiotic drug inhibiting cancer cell lines (cell viability analysis), TSGH-8301, TSGH-8301, repeated experiment
[27] = read-out: The results of antibiotic drug inhibiting cancer cell lines (cell viability analysis), PC-3, PC-3, repeated experiment
[28] = read-out: The results of antibiotic drug inhibiting cancer cell lines (cell viability analysis), A549, A549, repeated experiment
[29] = read-out: The results of antibiotic drug inhibiting cancer cell lines (cell viability analysis), MKN-45, MKN-45, repeated experiment

Row | Structure (SMILES) | viability at 10 µM [1, 19] | viability at 10 µM [2] | viability at 10 µM (U-2OS) | viability at 10 µM [3, 20] | viability at 10 µM [4] | viability at 10 µM [5, 21] | viability at 10 µM [6, 22] | viability at 10 µM [7] | viability at 10 µM (AsPC-1) | viability at 10 µM (BxPC-3) | viability at 10 µM [8] | viability at 10 µM (NIH: OVCAR-3) | viability at 10 µM [9] | viability at 10 µM (TOV-21G) | viability [10] | viability at 10 µM (T24) | viability at 10 µM [11, 23] | viability at 10 µM [12, 24] | viability at 10 µM [13, 25] | viability at 10 µM [14, 26] | further results
1 | CC[C@H]1OC(=O)[C@H](C)[C@@H](O[C@H]2C[C@@](C)(OC)[C@@H](O)[C@H](C)O2)[C@H](C)[C@@H](O[C@@H]2O[C@H](C)C[C@H](N(C)C)[C@H]2O)[C@](C)(O)C[C@@H](C)CN(C)[C@H](C)[C@@H](O)[C@]1(C)O [Azithromycin Dihydrate] | 97.4% | 97.8% | 70.3% | 105% | 50% | 91.4% | 62.3% | 91% | 75.3% | 71.3% | 109% | 94% | 92.6% | 89.6% | 80.7% | 112% | 77.2% | 98.6% | 79.2% | 119% | viability at 10 µM ([1]; read-out: cell viability (survival rate), A375, drug 10 μM, 72 hours, WST-1, OD450 nm): 50.8%; viability at 10 µM ([3]; read-out: cell viability (survival rate), HeLa, drug 10 μM, 72 hours, WST-1, OD450 nm): 55.6%; viability at 10 µM ([5]; read-out: cell viability (survival rate), HepG2, drug 10 μM, 72 hours, WST-1, OD450 nm): 81.1%; viability at 10 µM ([6]; read-out: cell viability (survival rate), MCF7, drug 10 μM, 72 hours, WST-1, OD450 nm): 36.4%; viability at 10 µM ([11]; read-out: cell viability (survival rate), AGS, drug 10 μM, 72 hours, WST-1, OD450 nm): 72.7%; viability at 10 µM ([12]; read-out: cell viability (survival rate), H1650, drug 10 μM, 72 hours, WST-1, OD450 nm): 61.3%; viability at 10 µM ([13]; read-out: cell viability (survival rate), LoVo, drug 10 μM, 72 hours, WST-1, OD450 nm): 65.3%; viability at 10 µM ([14]; read-out: cell viability (survival rate), TSGH, drug 10 μM, 72 hours, WST-1, OD450 nm): 39.4%; viability at 10 µM [15, 27]: 97.2%; viability at 10 µM ([15]; read-out: cell viability (survival rate), PC3, drug 10 μM, 72 hours, WST-1, OD450 nm): 43%; viability at 10 µM [16, 28]: 66.3%; viability at 10 µM ([16]; read-out: cell viability (survival rate), A549, drug 10 μM, 72 hours, WST-1, OD450 nm): 41.4%; viability at 10 µM [17, 29]: 95.8%; viability at 10 µM ([17]; read-out: cell viability (survival rate), MKN-45, drug 10 μM, 72 hours, WST-1, OD450 nm): 51.2%; inhibition effect on different cancer cell lines (cancer cell lines): significant inhibition effect; viability at 10 µM [18]: 70.6%
2 | O=c1n(CCCN2CCN(c3cccc(Cl)c3)CC2)nc2ccccn12 [Trazodone hydrochloride (Desyrel), Trazodone hydrochloride] | 111% | 87.8% | 57.6% | 105% | 58.4% | 109% | 97.8% | 95.5% | 89.4% | 73.5% | 110% | 103% | 112% | 107% | 113% | 106% | 120% | 82.4% | 88.8% | 134% | viability at 10 µM [15, 27]: 126%; viability at 10 µM [16, 28]: 92%; viability at 10 µM [17, 29]: 108%; inhibition effect on different cancer cell lines (cancer cell lines): significant inhibition effect; viability at 10 µM [18]: 114%
